# Laboratory results taken from patent US8883798B2, “Pyrimidine compounds inhibiting the formation of nitric oxide and prostaglandin E2, method of production thereof and use thereof” (Ustav Organicke Chemie a Biochemie Akademie Ved CR, V.V.I., priority 2011, dated 2014).
# How the values were obtained:
# [1] = tested on: production of prostaglandin E2 (PGE2); experiment: Production of prostaglandin E2 (PGE2) in cultures of mouse peritoneal cells stimulated with LPS (ELISA kit); type: cell-based, mice; conditions: for Production of prostaglandins in % of the controls: Table 3A, substance 50 μmol·l^−1, 6 h
# Description: (§1) Under in vitro conditions, the effect of the pyrimidine compounds according to this invention was tested in terms of the production of nitric oxide (NO) and in terms of the production of prostaglandin E2 (PGE2) in cultures of the peritoneal cells of mice.
# The influence on the production of prostaglandin E2 (PGE2) in vitro caused by the activity of the pyrimidine compounds according to the submitted invention was determined in cultures of the peritoneal cells of mice using a commercial kit (R&DSystems). The concentrations of PGE2 after lipopolysacharide (LPS) stimulation reached in the individual experiments values in a range of 22 to 91 ng·ml^−1 and for the purposes of comparison between the experiments were considered as 100%. The influence of the substances on the production of PGE2 was evaluated in percentage with respect to the control values.
# (§2) Experiments were performed on mice peritoneal cells C57BL/6 (Charles River, Germany—AnLabu).
# (§3) NO production was induced using IFN-g (5000 pg/mL) plus LPS (100 pg/mL); evaluated (Griess reagent) after 24 h of the cell cultivation (2×10^6/mL). PGE2 was induced using LPS (10 ng/mL); evaluated (ELISA) following 6 h cultivation of cells (3×10^6/mL). Cell longevity was evaluated using WST-1 (tetrazolium salt), following 24 h cultivation of cells (1×10^6/mL). The values mentioned in the table represent the effects of the substances tested in a concentration of 50 μmol·l^−1.
# [2] = tested on: peritoneal cells of mice; experiment: Cell viability of mouse peritoneal cells (WST-1 kit); type: cell-based; conditions: substance 50 μmol·l^−1, 24 h; for Cell viability in % of the controls: Table 3A; for Cell viabilities in % of the controls: Table 3B
# Description: Cell viability was determined in the standard way using a WST-1 kit (Roche). The values of the viability of the control cells were for the purposes of comparison between experiments considered as 100%. The influence of the substances on the longevity of the cells was evaluated in percentage with respect to the control values.
# as §2, §3
# [3] = tested on: production of nitric oxide (NO); experiment: Production of nitric oxide (NO) in cultures of mouse peritoneal cells stimulated with IFN-γ plus LPS (Griess reagent); type: cell-based, mice; conditions: substance 50 μmol·l^−1, IFN-g plus LPS, 24 h
# Description: as §1
# NO is a product of the metabolism of L-arginine, quickly changes to […], which are then measured using the Griess reagent system. Under normal conditions, the production of NO is practically zero. It only occurs after some stimulation. In these experiments, interferon-gamma (IFN-γ) and bacterial lipopolysacharide (LPS) were used as stimulators. The values of NO induced in this way fluctuated in the individual experiments in a range from 52 to 89 μmol·l^−1; for the purposes of comparison between the experiments they were considered as 100%. The production of NO after the application of the substances was expressed in percentage with respect to the control values. (The lower the value, the higher the inhibition effect of the substances on NO production.) IC50 are the concentrations of the substances reducing the production of NO by 50% with respect to the controls.
# as §2, §3
"Production of prostaglandins IC50 (μmol · 1^−1) average value and range of values ([1]; Table 3B, 6 h)",SMILES,Production of prostaglandins in % of the controls [1],Cell viability in % of the controls [2],Production of nitric oxide in % of the controls ([3]; Table 3A),Cell viabilities in % of the controls [2],Production of nitric oxide in % of the controls ([3]; Table 3B)
–,Cc1c(Cl)nc(N=CN(C)C)nc1Cl [Substance 13],59.98 ± 1.82 % of the controls,77.29 ± 3.69 % of the controls,21.39 ± 4.78 % of the controls,–,–
–,CCc1c(Cl)nc(N=CN(C)C)nc1Cl [Substance 14],30.40 ± 0.80 % of the controls,162.93 ± 14.68 % of the controls,23.24 ± 6.78 % of the controls,–,–
–,CCCc1c(Cl)nc(N=CN(C)C)nc1Cl [Substance 15],14.76 ± 0.52 % of the controls,109.35 ± 8.88 % of the controls,8.42 ± 4.75 % of the controls,–,–
–,CC(C)c1c(Cl)nc(N=CN(C)C)nc1Cl [Substance 16],32.10 ± 2.31 % of the controls,134.83 ± 16.51 % of the controls,7.32 ± 2.68 % of the controls,–,–
–,C=CCc1c(Cl)nc(N=CN(C)C)nc1Cl [Substance 17],15.72 ± 0.46 % of the controls,136.13 ± 11.32 % of the controls,6.2 ± 0.91 % of the controls,–,–
–,C#CCc1c(Cl)nc(N=CN(C)C)nc1Cl [Substance 18],78.55 ± 0.38 % of the controls,67.89 ± 7.41 % of the controls,0.90 ± 0.22 % of the controls,–,–
–,CCC(C)c1c(Cl)nc(N=CN(C)C)nc1Cl (stereo not drawn) [Substance 21],8.14 ± 0.07 % of the controls,122.65 ± 14.39 % of the controls,0.69 ± 0.12 % of the controls,–,–
–,CCCCCCc1c(Cl)nc(N=CN(C)C)nc1Cl [Substance 22],–,–,61.34 ± 3.91 % of the controls,–,–
–,CN(C)C=Nc1nc(Cl)c(-c2ccccc2)c(Cl)n1 [Substance 24],18.45 ± 13.68 % of the controls,80.00 ± 11.61 % of the controls,4.97 ± 2.00 % of the controls,–,–
–,Cc1c(Cl)nc(N)nc1Cl [Substance 25],–,98.55 ± 17.60 % of the controls,47.30 ± 13.48 % of the controls,–,–
–,CCc1c(Cl)nc(N)nc1Cl [Substance 26],–,91.53 ± 10.78 % of the controls,48.59 ± 9.49 % of the controls,–,–
–,CCCc1c(Cl)nc(N)nc1Cl [Substance 27],31.73 ± 4.35 % of the controls,87.86 ± 9.18 % of the controls,46.98 ± 10.25 % of the controls,–,–
–,CC(C)c1c(Cl)nc(N)nc1Cl [Substance 29],–,91.18 ± 9.90 % of the controls,36.97 ± 8.22 % of the controls,–,–
–,CCC(C)c1c(Cl)nc(N)nc1Cl (stereo not drawn) [Substance 30],–,111.90 ± 9.63 % of the controls,47.48 ± 6.22 % of the controls,–,–
–,Nc1nc(Cl)c(-c2ccccc2)c(Cl)n1 [Substance 31],–,82.53 ± 8.73 % of the controls,36.11 ± 8.38 % of the controls,–,–
–,C#CCc1c(Cl)nc(N)nc1Cl [Substance 33],–,90.58 ± 17.05 % of the controls,35.98 ± 14.08 % of the controls,–,–
–,CCC(C)c1c(I)nc(N)nc1I (stereo not drawn) [Substance 36],–,–,2.80 ± 1.28 % of the controls,–,–
–,CCC(C)c1c(Cl)nc(N)nc1I (stereo not drawn) [Substance 37],–,49.11 ± 3.29 % of the controls,6.67 ± 5.15 % of the controls,–,–
–,Nc1nc(I)c(Cc2ccccc2)c(I)n1 [Substance 38],–,78.60 ± 5.33 % of the controls,34.80 ± 0.31 % of the controls,–,–
–,Nc1nc(Cl)c(Cc2ccccc2)c(I)n1 [Substance 39],–,67.81 ± 3.08 % of the controls,18.30 ± 7.66 % of the controls,–,–

"Production of prostaglandins IC50 (μmol · 1^−1) average value and range of values ([1]; Table 3B, 6 h)",SMILES,Production of prostaglandins in % of the controls [1],Cell viability in % of the controls [2],Production of nitric oxide in % of the controls ([3]; Table 3A),Cell viabilities in % of the controls [2],Production of nitric oxide in % of the controls ([3]; Table 3B)
–,Nc1nc(Br)c(Cc2ccccc2)c(Br)n1 [Substance 40],–,90.18 ± 3.75 % of the controls,32.45 ± 10.99 % of the controls,–,–
–,CCCCc1c(Cl)nc(N)nc1-c1ccccc1 [Substance 41],–,108.24 ± 7.40 % of the controls,47.82 ± 6.08 % of the controls,–,–
–,CCCCc1c(Cl)nc(N)nc1-c1ccsc1 [Substance 42],–,157.36 ± 5.16 % of the controls,63.18 ± 0.89 % of the controls,–,–
–,CCCCc1c(Cl)nc(N)nc1-c1cccnc1 [Substance 43],–,166.77 ± 22.51 % of the controls,58.68 ± 0.92 % of the controls,–,–
–,CCCCc1c(Cl)nc(N)nc1-c1cc2ccccc2o1 [Substance 44],–,147.78 ± 5.90 % of the controls,62.62 ± 0.19 % of the controls,–,–
–,CCCCc1c(-c2ccccc2)nc(N)nc1-c1ccccc1 [Substance 45],–,297.33 ± 23.17 % of the controls,73.29 ± 1.40 % of the controls,–,–
–,CCCCc1c(-c2cccnc2)nc(N)nc1-c1cccnc1 [Substance 46],–,107.08 ± 2.94 % of the controls,70.00 ± 4.82 % of the controls,–,–
–,CCCCc1c(-c2cc3ccccc3o2)nc(N)nc1-c1cc2ccccc2o1 [Substance 47],–,75.01 ± 13.63 % of the controls,41.23 ± 18.49 % of the controls,–,–
–,CCCCCCc1c(Cl)nc(NC=O)nc1Cl [Substance 55],–,144.97 ± 18.27 % of the controls,14.77 ± 9.19 % of the controls,–,–
–,C#CCc1c(Cl)nc(NC=O)nc1Cl [Substance 58],12.30 ± 0.54 % of the controls,–,0.69 ± 0.26 % of the controls,–,–
–,C=C(Cl)Cc1c(Cl)nc(NC=O)nc1Cl [Substance 60],–,37.13 ± 1.27 % of the controls,0.13 ± 0.13 % of the controls,–,–
–,CCCCc1c(Cl)ncnc1Cl [Substance 61],–,73.73 ± 0.99 % of the controls,27.38 ± 1.88 % of the controls,–,–
–,CCCCc1c(Cl)nc(C)nc1Cl [Substance 62],–,80.93 ± 0.84 % of the controls,41.21 ± 5.50 % of the controls,–,–
–,CCCCc1c(Cl)nc(N(C)C)nc1Cl [Substance 63],–,–,64.97 ± 2.92 % of the controls,–,–
–,CCCCc1c(-c2cccnc2)nc(N)nc1-c1cccnc1 [Substance 81],–,–,–,82.21 ± 7.34; n = 8 % of the controls,50.07 ± 3.04; n = 6 % of the controls
–,CCCCc1c(-c2ccncc2)nc(N)nc1-c1ccc(OC)cc1 [Substance 83],–,–,–,95.41 ± 4.70; n = 8 % of the controls,63.81 ± 5.32; n = 6 % of the controls
–,CCCCc1c(-c2ccncc2)nc(N)nc1-c1cccnc1 [Substance 84],–,–,–,109.54 ± 4.48; n = 8 % of the controls,47.55 ± 7.12; n = 6 % of the controls
–,CCCCc1c(Cl)nc(N)nc1-c1ccncc1 [Substance 85],–,–,–,87.62 ± 6.58; n = 4 % of the controls,49.34 ± 4.20; n = 4 % of the controls
11.47 ± 2.73; n = 4 μmol · 1^−1,CCCCc1c(Cl)nc(N)nc1-c1cccs1 [Substance 93],–,–,–,74.47 ± 0.81; n = 4 % of the controls,–
